Data as given in ChEMBL document CHEMBL4725363 (J Med Chem, 2020).
One block for each molecule: values may come before it. Calls of active or inactive are those of the source. No cut-off for these calls is given here.

Tests used:
[1] = biological target: DNA topoisomerase 2-alpha (Homo sapiens) (UniProt P11388); assay: Inhibition of Top2 (unknown origin) mediated supercoiled DNA relaxation at 100 uM
[2] = biological target: cGMP-specific 3',5'-cyclic phosphodiesterase (Homo sapiens, UniProt O76074); assay: Inhibition of human PDE5A1 (535-860 residues) expressed in Escherichia coli BL21 incubated for 15 mins using [3H]-cGMP as substrate by liquid scintillation counting method
[3] = biological target: Dual specificity calcium/calmodulin-dependent 3',5'-cyclic nucleotide phosphodiesterase 1B (Homo sapiens, UniProt Q01064); assay: Inhibition of human PDE1B (10-487 residues) expressed in Sf9 cells incubated for 15 mins using [3H]-cGMP as substrate by liquid scintillation counting method
[4] = biological target: cAMP and cAMP-inhibited cGMP 3',5'-cyclic phosphodiesterase 10A (Homo sapiens, UniProt Q9Y233); assay: Inhibition of human PDE10A catalytic domain (449 to 770 residues) using [3H]-cAMP as substrate after 15 mins by liquid scintillation counting method
[5] = biological target: T1, DNA topoisomerase 1 (Homo sapiens) (UniProt P11387); assay: Inhibition of Top (unknown origin) mediated supercoiled DNA relaxation at 100 uM
T1 sequence (whole entry): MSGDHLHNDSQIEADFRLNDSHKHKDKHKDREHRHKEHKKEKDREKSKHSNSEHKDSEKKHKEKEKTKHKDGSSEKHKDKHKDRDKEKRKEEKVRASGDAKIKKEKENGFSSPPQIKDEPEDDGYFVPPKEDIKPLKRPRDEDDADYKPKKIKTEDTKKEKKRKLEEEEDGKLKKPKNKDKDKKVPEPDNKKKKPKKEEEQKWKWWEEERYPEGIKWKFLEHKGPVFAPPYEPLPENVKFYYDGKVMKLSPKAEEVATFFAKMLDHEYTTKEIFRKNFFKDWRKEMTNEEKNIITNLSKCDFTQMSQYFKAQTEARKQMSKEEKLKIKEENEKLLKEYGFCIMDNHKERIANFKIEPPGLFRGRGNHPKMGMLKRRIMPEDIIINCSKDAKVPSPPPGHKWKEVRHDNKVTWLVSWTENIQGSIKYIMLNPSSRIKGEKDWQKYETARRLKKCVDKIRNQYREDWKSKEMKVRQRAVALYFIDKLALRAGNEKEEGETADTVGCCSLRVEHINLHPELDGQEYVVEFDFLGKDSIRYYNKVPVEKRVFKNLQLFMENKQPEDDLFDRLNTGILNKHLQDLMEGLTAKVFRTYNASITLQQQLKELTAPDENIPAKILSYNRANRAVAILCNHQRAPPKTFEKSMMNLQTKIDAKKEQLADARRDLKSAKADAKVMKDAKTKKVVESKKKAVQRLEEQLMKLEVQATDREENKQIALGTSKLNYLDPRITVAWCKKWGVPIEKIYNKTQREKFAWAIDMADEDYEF

[6] = biological target: Dual 3',5'-cyclic-AMP and -GMP phosphodiesterase 11A (Homo sapiens, UniProt Q9HCR9); assay: Inhibition of PDE11A catalytic domain (unknown origin) using [3H]-cAMP or [3H]-[…] as substrate after 15 mins by liquid scintillation counting method
[7] = biological target: High affinity 3',5'-cyclic-AMP phosphodiesterase 7A (Homo sapiens, UniProt Q13946); assay: Inhibition of PDE7A1 catalytic domain (130 to 482 residues) (unknown origin) using [3H]-cAMP as substrate after 15 mins by liquid scintillation counting method
[8] = Inhibition of human PDE5A1 D563A mutant expressed in Escherichia coli BL21 incubated for 15 mins using [3H]-cGMP as substrate by liquid scintillation counting method
Homo sapiens = species: Homo sapiens; assay: Selectivity index, ratio of IC50 for human PDE6C to IC50 for human PDE5A1
[9] = test system: COc1ccc2c3c([nH]c2c1)[C@@H]1N(CC3)C(=O)c2c(OC)cccc2N1C; assay: Negative allosteric modulator activity at human PDE5A1 (535-860 residues) expressed in Escherichia coli BL21 assessed as Kcat/Km ratio for cGMP at 50 nM incubated for 15 mins using [3H]-cGMP as substrate by liquid scintillation counting method (reference value: 0.6 +/- 0.04 /s/microM); details: filed as negative allosteric modulator
[10] = test system: COc1ccc2c3c([nH]c2c1)[C@@H]1N(CC3)C(=O)c2c(OC)cccc2N1C; assay: Negative allosteric modulator activity at human PDE5A1 (535-860 residues) expressed in Escherichia coli BL21 assessed as Kcat for cGMP at 100 nM incubated for 15 mins using [3H]-cGMP as substrate by liquid scintillation counting method (reference value: 2.53 +/- 0.24 /s); details: filed as negative allosteric modulator
[11] = test system: COc1ccc2c3c([nH]c2c1)[C@@H]1N(CC3)C(=O)c2c(OC)cccc2N1C; assay: Negative allosteric modulator activity at human PDE5A1 (535-860 residues) expressed in Escherichia coli BL21 assessed as Kcat/Km ratio for cGMP at 25 nM incubated for 15 mins using [3H]-cGMP as substrate by liquid scintillation counting method (reference value: 0.6 +/- 0.04 /s/microM); details: filed as negative allosteric modulator
[12] = test system: COc1ccc2c3c([nH]c2c1)[C@@H]1N(CC3)C(=O)c2c(OC)cccc2N1C; assay: Negative allosteric modulator activity at human PDE5A1 (535-860 residues) expressed in Escherichia coli BL21 assessed as Km for cGMP at 25 nM incubated for 15 mins using [3H]-cGMP as substrate by liquid scintillation counting method (reference value: 4.22 +/- 0.45 uM); details: filed as negative allosteric modulator
[13] = test system: COc1ccc2c3c([nH]c2c1)[C@@H]1N(CC3)C(=O)c2c(OC)cccc2N1C; assay: Negative allosteric modulator activity at human PDE5A1 (535-860 residues) expressed in Escherichia coli BL21 assessed as Km for cGMP at 50 nM incubated for 15 mins using [3H]-cGMP as substrate by liquid scintillation counting method (reference value: 4.22 +/- 0.45 uM); details: filed as negative allosteric modulator
[14] = test system: COc1ccc2c3c([nH]c2c1)[C@@H]1N(CC3)C(=O)c2c(OC)cccc2N1C; assay: Negative allosteric modulator activity at human PDE5A1 (535-860 residues) expressed in Escherichia coli BL21 assessed as Kcat for cGMP at 200 nM incubated for 15 mins using [3H]-cGMP as substrate by liquid scintillation counting method (reference value: 2.53 +/- 0.24 /s); details: filed as negative allosteric modulator
[15] = test system: COc1ccc2c3c([nH]c2c1)[C@@H]1N(CC3)C(=O)c2c(OC)cccc2N1C; assay: Negative allosteric modulator activity at human PDE5A1 (535-860 residues) expressed in Escherichia coli BL21 assessed as Kcat for cGMP at 50 nM incubated for 15 mins using [3H]-cGMP as substrate by liquid scintillation counting method (reference value: 2.53 +/- 0.24 /s); details: filed as negative allosteric modulator
[16] = test system: COc1ccc2c3c([nH]c2c1)[C@@H]1N(CC3)C(=O)c2c(OC)cccc2N1C; assay: Negative allosteric modulator activity at human PDE5A1 (535-860 residues) expressed in Escherichia coli BL21 assessed as Kcat for cGMP at 25 nM incubated for 15 mins using [3H]-cGMP as substrate by liquid scintillation counting method (reference value: 2.53 +/- 0.24 /s); details: filed as negative allosteric modulator
[17] = test system: COc1ccc2c3c([nH]c2c1)[C@@H]1N(CC3)C(=O)c2c(OC)cccc2N1C; assay: Negative allosteric modulator activity at human PDE5A1 (535-860 residues) expressed in Escherichia coli BL21 assessed as Kcat/Km ratio for cGMP at 100 nM incubated for 15 mins using [3H]-cGMP as substrate by liquid scintillation counting method (reference value: 0.6 +/- 0.04 /s/microM); details: filed as negative allosteric modulator
[18] = test system: COc1ccc2c3c([nH]c2c1)[C@@H]1N(CC3)C(=O)c2c(OC)cccc2N1C; assay: Negative allosteric modulator activity at human PDE5A1 (535-860 residues) expressed in Escherichia coli BL21 assessed as Kcat/Km ratio for cGMP at 200 nM incubated for 15 mins using [3H]-cGMP as substrate by liquid scintillation counting method (reference value: 0.6 +/- 0.04 /s/microM); details: filed as negative allosteric modulator
[19] = test system: COc1ccc2c3c([nH]c2c1)[C@@H]1N(CC3)C(=O)c2c(OC)cccc2N1C; assay: Negative allosteric modulator activity at human PDE5A1 (535-860 residues) expressed in Escherichia coli BL21 assessed as Km for cGMP at 100 nM incubated for 15 mins using [3H]-cGMP as substrate by liquid scintillation counting method (reference value: 4.22 +/- 0.45 uM); details: filed as negative allosteric modulator
[20] = test system: COc1ccc2c3c([nH]c2c1)[C@@H]1N(CC3)C(=O)c2c(OC)cccc2N1C; assay: Negative allosteric modulator activity at human PDE5A1 (535-860 residues) expressed in Escherichia coli BL21 assessed as Km for cGMP at 200 nM incubated for 15 mins using [3H]-cGMP as substrate by liquid scintillation counting method (reference value: 4.22 +/- 0.45 uM); details: filed as negative allosteric modulator

Chain of DNA topoisomerase 2-alpha (Homo sapiens) (P11388 whole entry, the tested form may be a part): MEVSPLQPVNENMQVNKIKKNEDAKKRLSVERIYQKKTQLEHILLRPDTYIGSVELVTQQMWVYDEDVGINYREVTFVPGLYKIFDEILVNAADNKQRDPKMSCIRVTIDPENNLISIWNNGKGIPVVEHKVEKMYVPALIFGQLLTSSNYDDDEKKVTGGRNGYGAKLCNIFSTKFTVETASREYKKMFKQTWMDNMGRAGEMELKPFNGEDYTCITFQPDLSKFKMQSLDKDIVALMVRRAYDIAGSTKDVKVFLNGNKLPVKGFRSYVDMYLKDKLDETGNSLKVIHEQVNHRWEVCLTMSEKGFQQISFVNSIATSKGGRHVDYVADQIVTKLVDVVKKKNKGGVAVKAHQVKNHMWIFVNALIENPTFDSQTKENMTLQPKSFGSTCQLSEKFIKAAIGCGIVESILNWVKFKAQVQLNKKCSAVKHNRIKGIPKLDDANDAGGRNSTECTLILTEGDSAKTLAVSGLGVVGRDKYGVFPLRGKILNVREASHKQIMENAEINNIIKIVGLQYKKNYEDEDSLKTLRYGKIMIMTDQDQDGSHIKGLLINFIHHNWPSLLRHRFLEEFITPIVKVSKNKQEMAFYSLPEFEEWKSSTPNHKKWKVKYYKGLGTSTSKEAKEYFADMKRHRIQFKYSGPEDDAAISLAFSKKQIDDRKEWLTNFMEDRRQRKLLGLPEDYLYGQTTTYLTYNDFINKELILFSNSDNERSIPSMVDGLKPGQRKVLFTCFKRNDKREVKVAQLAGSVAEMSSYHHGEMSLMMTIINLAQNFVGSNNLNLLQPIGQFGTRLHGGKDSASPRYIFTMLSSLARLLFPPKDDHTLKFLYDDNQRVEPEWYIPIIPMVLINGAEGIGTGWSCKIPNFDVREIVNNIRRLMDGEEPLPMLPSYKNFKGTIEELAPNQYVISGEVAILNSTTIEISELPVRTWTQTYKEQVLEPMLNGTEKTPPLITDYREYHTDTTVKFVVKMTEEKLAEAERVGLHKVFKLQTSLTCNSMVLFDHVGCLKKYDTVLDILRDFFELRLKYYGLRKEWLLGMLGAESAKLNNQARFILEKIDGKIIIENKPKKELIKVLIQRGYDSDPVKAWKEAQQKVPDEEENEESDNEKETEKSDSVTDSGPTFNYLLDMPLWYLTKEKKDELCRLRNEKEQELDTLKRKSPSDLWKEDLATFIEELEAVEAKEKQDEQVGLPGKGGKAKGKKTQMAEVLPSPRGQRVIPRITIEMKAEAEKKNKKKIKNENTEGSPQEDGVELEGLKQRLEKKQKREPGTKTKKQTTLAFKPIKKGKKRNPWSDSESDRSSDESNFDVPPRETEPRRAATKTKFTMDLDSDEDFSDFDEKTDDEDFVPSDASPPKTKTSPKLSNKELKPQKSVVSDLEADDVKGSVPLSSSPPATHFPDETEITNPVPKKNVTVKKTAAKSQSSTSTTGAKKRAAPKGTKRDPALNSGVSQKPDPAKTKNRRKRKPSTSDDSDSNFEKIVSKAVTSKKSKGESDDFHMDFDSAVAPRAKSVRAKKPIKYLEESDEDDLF
Chain of cAMP and cAMP-inhibited cGMP 3',5'-cyclic phosphodiesterase 10A (Q9Y233 whole entry, the tested form may be a part): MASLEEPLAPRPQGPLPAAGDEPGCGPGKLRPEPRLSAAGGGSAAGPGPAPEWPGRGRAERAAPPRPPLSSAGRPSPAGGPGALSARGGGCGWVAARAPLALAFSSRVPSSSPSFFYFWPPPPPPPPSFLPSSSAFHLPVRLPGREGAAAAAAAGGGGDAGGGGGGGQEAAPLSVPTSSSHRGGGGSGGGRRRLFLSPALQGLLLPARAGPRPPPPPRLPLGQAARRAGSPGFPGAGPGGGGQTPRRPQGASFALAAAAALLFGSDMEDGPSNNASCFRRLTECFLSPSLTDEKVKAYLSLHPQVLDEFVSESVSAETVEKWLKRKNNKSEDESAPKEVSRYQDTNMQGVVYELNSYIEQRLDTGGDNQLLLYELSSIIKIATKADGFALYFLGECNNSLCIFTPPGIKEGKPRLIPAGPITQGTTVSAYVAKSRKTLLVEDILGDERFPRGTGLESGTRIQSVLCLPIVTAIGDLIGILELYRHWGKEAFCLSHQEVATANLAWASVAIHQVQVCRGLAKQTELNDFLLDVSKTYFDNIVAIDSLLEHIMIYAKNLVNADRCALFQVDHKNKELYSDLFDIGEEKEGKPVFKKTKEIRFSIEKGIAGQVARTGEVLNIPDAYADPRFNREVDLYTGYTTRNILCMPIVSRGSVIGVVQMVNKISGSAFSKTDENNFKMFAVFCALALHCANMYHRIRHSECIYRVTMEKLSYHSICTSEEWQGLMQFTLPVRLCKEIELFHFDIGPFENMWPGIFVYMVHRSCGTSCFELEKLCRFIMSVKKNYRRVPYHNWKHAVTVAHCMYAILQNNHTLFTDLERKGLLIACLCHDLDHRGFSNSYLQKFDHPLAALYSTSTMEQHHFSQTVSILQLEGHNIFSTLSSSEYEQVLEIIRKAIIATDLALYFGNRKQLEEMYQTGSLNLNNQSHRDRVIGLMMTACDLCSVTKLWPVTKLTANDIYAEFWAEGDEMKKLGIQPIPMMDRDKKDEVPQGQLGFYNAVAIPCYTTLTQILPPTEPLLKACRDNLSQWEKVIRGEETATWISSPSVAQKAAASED
Chain of Dual 3',5'-cyclic-AMP and -GMP phosphodiesterase 11A (Q9HCR9 whole entry, the tested form may be a part): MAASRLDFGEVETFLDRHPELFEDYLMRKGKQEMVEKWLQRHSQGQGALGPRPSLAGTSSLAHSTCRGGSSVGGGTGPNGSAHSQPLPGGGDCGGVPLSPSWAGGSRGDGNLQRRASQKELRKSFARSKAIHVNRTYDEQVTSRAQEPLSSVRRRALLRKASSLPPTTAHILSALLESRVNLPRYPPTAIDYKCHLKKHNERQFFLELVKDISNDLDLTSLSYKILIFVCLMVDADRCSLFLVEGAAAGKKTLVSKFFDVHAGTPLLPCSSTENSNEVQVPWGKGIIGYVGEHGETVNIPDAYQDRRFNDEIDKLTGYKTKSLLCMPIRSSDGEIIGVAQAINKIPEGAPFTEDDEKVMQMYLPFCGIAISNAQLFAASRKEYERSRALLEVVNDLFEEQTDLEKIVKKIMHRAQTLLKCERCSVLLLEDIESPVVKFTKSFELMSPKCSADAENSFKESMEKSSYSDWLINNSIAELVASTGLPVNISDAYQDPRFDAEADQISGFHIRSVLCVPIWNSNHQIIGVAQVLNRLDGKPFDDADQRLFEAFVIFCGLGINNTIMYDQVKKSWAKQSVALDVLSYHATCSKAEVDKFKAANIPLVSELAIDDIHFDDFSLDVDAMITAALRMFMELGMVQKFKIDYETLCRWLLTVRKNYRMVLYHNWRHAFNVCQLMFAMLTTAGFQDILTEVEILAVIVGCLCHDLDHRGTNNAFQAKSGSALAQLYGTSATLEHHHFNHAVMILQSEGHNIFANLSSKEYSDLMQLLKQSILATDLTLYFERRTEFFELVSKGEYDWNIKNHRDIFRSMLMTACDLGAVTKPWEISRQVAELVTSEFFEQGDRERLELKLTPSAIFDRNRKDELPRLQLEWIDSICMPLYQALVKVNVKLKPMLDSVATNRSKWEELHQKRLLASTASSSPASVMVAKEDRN
Chain of High affinity 3',5'-cyclic-AMP phosphodiesterase 7A (Q13946 whole entry, the tested form may be a part): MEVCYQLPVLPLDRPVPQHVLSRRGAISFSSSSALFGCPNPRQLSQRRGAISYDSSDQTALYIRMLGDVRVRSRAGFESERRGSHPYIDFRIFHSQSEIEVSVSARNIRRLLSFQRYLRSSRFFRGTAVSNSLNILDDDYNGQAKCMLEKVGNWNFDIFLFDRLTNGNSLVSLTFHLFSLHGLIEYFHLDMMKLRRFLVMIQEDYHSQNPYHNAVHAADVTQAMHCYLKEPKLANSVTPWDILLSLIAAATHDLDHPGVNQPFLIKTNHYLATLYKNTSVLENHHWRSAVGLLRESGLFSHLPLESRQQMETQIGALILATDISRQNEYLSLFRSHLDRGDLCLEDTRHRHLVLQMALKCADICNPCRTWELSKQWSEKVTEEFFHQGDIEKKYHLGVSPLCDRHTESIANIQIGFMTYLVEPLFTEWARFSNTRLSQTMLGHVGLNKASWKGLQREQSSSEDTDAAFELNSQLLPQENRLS
Chain of Dual specificity calcium/calmodulin-dependent 3',5'-cyclic nucleotide phosphodiesterase 1B (Q01064 whole entry, the tested form may be a part): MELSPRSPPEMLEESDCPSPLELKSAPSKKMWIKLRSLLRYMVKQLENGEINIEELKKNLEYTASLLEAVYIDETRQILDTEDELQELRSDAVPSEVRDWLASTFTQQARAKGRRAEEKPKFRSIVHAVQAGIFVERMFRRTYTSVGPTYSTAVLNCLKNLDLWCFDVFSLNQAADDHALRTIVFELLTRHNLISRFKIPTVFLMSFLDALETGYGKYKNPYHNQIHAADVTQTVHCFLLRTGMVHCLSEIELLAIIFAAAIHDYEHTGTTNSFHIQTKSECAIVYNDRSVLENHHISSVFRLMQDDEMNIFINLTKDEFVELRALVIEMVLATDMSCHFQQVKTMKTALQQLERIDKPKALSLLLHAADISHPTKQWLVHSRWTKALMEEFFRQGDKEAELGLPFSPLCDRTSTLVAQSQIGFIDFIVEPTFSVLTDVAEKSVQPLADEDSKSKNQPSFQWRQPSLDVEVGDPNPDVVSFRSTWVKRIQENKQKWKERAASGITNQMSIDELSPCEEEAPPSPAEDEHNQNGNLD

Molecule: CN1c2cccc(O)c2C(=O)N2CCc3c([nH]c4ccccc34)[C@@H]21
IC50 [2]: > 10 µM

Molecule: CCCc1nn(C)c2c(=O)[nH]c(-c3cc(S(=O)(=O)N4CCN(C)CC4)ccc3OCC)nc12
IC50 [8]: 0.0012 µM

Molecule: cGMP-specific 3',5'-cyclic phosphodiesterase (Homo sapiens) (from UniProt O76074)
kcat/Km [9]: 130000 M⁻¹ s⁻¹ | kcat [10]: 1.48 s⁻¹ | kcat/Km [11]: 170000 M⁻¹ s⁻¹ | Km [12]: 11.8 µM | Km [13]: 11.8 µM | kcat [14]: 1.05 s⁻¹ | kcat [15]: 1.51 s⁻¹ | kcat [16]: 1.99 s⁻¹ | kcat/Km [17]: 110000 M⁻¹ s⁻¹ | kcat/Km [18]: 84000 M⁻¹ s⁻¹ | Km [19]: 13.2 µM | Km [20]: 12.5 µM

Molecule: COc1cccc2c1C(=O)N1CCc3c([nH]c4ccccc34)[C@@H]1N2C
IC50 [2]: 2.6 µM

Molecule: COc1ccc2c3c([nH]c2c1)[C@H]1N(CC3)C(=O)c2c(OC)cccc2N1C
IC50 [2]: > 10 µM

Molecule: CN1c2ccccc2C(=O)N2CCc3c([nH]c4ccccc34)[C@@H]21 [EVODIAMINE]
IC50 [2]: > 50 µM

The remaining molecules from weak to strong by IC50 [2], led by results:

IC50 [2]: 2.1 µM
Molecule: CN1c2ccccc2C(=O)N2CCc3c([nH]c4ccccc34)C21 (stereo not drawn)

IC50 [2]: 1.7 µM
Molecule: CN1c2cccc(O)c2C(=O)N2CCc3c([nH]c4ccccc34)C21 (stereo not drawn)

IC50 [2]: 1.3 µM
Molecule: CN1c2ccccc2C(=O)N2CCc3c([nH]c4ccccc34)[C@H]21

IC50 [2]: 0.42 µM
Molecule: CN1c2cccc(O)c2C(=O)N2CCc3c([nH]c4ccccc34)[C@H]21

Ratio IC50 (Homo sapiens): > 64 | IC50 [2]: 0.34 µM
Molecule: COc1cccc2c1C(=O)N1CCc3c([nH]c4ccccc34)C1N2C (stereo not drawn)

Ratio IC50 (Homo sapiens): > 190 | IC50 [2]: 0.11 µM
Molecule: COc1cccc2c1C(=O)N1CCc3c([nH]c4ccccc34)[C@H]1N2C

IC50 [2]: 0.053 µM
Molecule: COc1ccc2c3c([nH]c2c1)C1N(CC3)C(=O)c2c(OC)cccc2N1C (stereo not drawn)

inhibition [1]: inactive | IC50 [2]: 0.035 µM | IC50 [3]: > 20 µM | IC50 [4]: 2.2 µM | inhibition [5]: inactive | IC50 [6]: > 20 µM | IC50 [7]: > 20 µM
Molecule: COc1cccc2c1C(=O)N1CCc3c([nH]c4cccc(OC)c34)[C@H]1N2C
